In ChEMBL document CHEMBL5512674, “Novel Acyl Thiourea-Based Hydrophobic Tagging Degraders Exert Potent Anti-Influenza Activity through Two Distinct Endonuclease Polymerase Acidic-Targeted Degradation Pathways” (J Med Chem, 2024):
Activity calls are given as the source filed them. No cut-off for these calls is given here.

Tests used:
Influenza B virus [1] = assay: Anti-influenza activity against Influenza B virus Yamagata/16/88 infected in HEK293T cells assessed as reduction in virus-induced cytopathic effect incubated for 48 hrs by CCK-8 assay; assay type: functional, organism-based; settings: Yamagata/16/88, HEK-293T
Influenza B virus [2] = assay: Anti-influenza activity against Influenza B virus Victoria/2/87 infected in HEK293T cells assessed as reduction in virus-induced cytopathic effect incubated for 48 hrs by CCK-8 assay; assay type: functional, organism-based; settings: Victoria/2/87, HEK-293T
Influenza A virus [3] = assay: Anti-influenza activity against Influenza A virus A/PR/8/34 (H1N1) infected in MDCK cells assessed as inhibition of viral growth incubated for 48 hrs by luciferase assay; assay type: functional, organism-based
Influenza A virus [4] = assay: Anti-influenza activity against Influenza A virus A/WSN/33(H1N1) infected in HEK293T cells assessed as reduction in virus-induced cytopathic effect incubated for 48 hrs by CCK-8 assay; assay type: functional, organism-based; settings: HEK-293T
Influenza A virus [5] = assay: Anti-influenza activity against Influenza A virus A/WSN/33(H1N1) infected in MDCK cells assessed as downregulation of nucleoprotein expression at 1.56 to 100 nM incubated for 24 hrs by Western blotting analysis; assay type: functional, organism-based; settings: dose 1.56-100 nM
[6] = Selectivity index, ratio of CC50 for cytotoxicity against human HEK293T cells to EC50 for anti-influenza activity against Influenza A virus A/WSN/33(H1N1) infected in HEK293T cells assessed as reduction in virus-induced cytopathic effect; assay type: toxicity, cell-based; settings: read-out: Ratio CC50/EC50
Influenza A virus [7] = assay: Anti-influenza activity against Influenza A virus A/PR/8/34 (H1N1) infected in MDCK cells assessed as inhibition of viral growth at 0.8 nM incubated for 48 hrs by luciferase assay relative to control; assay type: functional
[8] = Cytotoxicity against dog MDCK cells assessed as reduction in cell viability incubated for 48 hrs by CCK-8 assay; assay type: toxicity, cell-based, Canis lupus familiaris
[9] = Cytotoxicity against human HEK293T cells assessed as reduction in cell viability incubated for 48 hrs by CCK-8 assay; assay type: toxicity, cell-based, HEK-293T
Influenza A virus [10] = assay: Anti-influenza activity against Influenza A virus H3N2 infected in HEK293T cells assessed as reduction in virus-induced cytopathic effect incubated for 48 hrs by CCK-8 assay; assay type: functional, organism-based; settings: H3N2, HEK-293T
Influenza A virus [11] = assay: Anti-influenza activity against Influenza A virus A/PR/8/34 (H1N1) infected in MDCK cells assessed as inhibition of viral growth at 100 uM incubated for 48 hrs by luciferase assay relative to control; assay type: functional
[12] = Stability in human plasma assessed as compound remaining measured after 60 mins by LC-MS/MS analysis; assay type: ADME, cell-free; settings: read-out: Stability
[13] = Stability in human plasma assessed as compound remaining measured after 120 mins by LC-MS/MS analysis; assay type: ADME, cell-free; settings: read-out: Stability
[14] = Intrinsic clearance in mouse liver microsomes preincubated for 5 mins followed by NADPH addition and measured for 45 mins by LC-MS analysis; assay type: ADME, Microsome; settings: time 50 min, read-out: CLH
[15] = Intrinsic clearance in dog liver microsomes preincubated for 5 mins followed by NADPH addition and measured for 45 mins by LC-MS analysis; assay type: ADME, Canis lupus familiaris, Microsome; settings: time 50 min, read-out: CLH
[16] = Hepatic extraction ratio in human liver microsomes preincubated for 5 mins followed by NADPH addition and measured for 45 mins by LC-MS analysis; assay type: ADME, Microsome; settings: time 50 min, read-out: ERH
[17] = Half life in human liver microsomes preincubated for 5 mins followed by NADPH addition and measured for 45 mins by LC-MS analysis; assay type: ADME, Microsome; settings: time 50 min
Influenza A virus [18] = assay: Anti-influenza activity against Influenza A virus A/PR/8/34 (H1N1) infected in MDCK cells assessed as reduction in virus-induced cytopathic effect incubated for 48 hrs by CCK-8 assay; assay type: functional, organism-based
[19] = Stability in human plasma assessed as compound remaining measured after 5 mins by LC-MS/MS analysis; assay type: ADME, cell-free; settings: read-out: Stability
[20] = Stability in human plasma assessed as compound remaining measured after 15 mins by LC-MS/MS analysis; assay type: ADME, cell-free; settings: read-out: Stability
[21] = Stability in human plasma assessed as compound remaining by LC-MS/MS analysis; assay type: ADME, cell-free
[22] = Hepatic extraction ratio in mouse liver microsomes preincubated for 5 mins followed by NADPH addition and measured for 45 mins by LC-MS analysis; assay type: ADME, Microsome; settings: time 50 min, read-out: ERH
[23] = Half life in mouse liver microsomes preincubated for 5 mins followed by NADPH addition and measured for 45 mins by LC-MS analysis; assay type: ADME, Microsome; settings: time 50 min
[24] = Hepatic clearance in mouse liver microsomes preincubated for 5 mins followed by NADPH addition and measured for 45 mins by LC-MS analysis; assay type: ADME, Microsome; settings: time 50 min
[25] = Intrinsic clearance in human liver microsomes preincubated for 5 mins followed by NADPH addition and measured for 45 mins by LC-MS analysis; assay type: ADME, Microsome; settings: time 50 min, read-out: CLH
Influenza A virus [26] = assay: Anti-influenza activity against Influenza A virus A/PR/8/34 (H1N1) infected in MDCK cells assessed as inhibition of viral growth at 1.6 nM incubated for 48 hrs by luciferase assay relative to control; assay type: functional
[27] = Stability in human plasma assessed as compound remaining measured after 30 mins by LC-MS/MS analysis; assay type: ADME, cell-free; settings: read-out: Stability
[28] = Hepatic extraction ratio in dog liver microsomes preincubated for 5 mins followed by NADPH addition and measured for 45 mins by LC-MS analysis; assay type: ADME, Canis lupus familiaris, Microsome; settings: time 50 min, read-out: ERH
[29] = Half life in dog liver microsomes preincubated for 5 mins followed by NADPH addition and measured for 45 mins by LC-MS analysis; assay type: ADME, Canis lupus familiaris, Microsome; settings: time 50 min
[30] = Hepatic clearance in human liver microsomes preincubated for 5 mins followed by NADPH addition and measured for 45 mins by LC-MS analysis; assay type: ADME, Microsome; settings: time 50 min
[31] = molecular target: von Hippel-Lindau disease tumor suppressor/Polymerase acidic protein (Influenza A virus (A/Puerto Rico/8/1934(H1N1))) (UniProt P03433+P40337); assay: PROTAC activity at Influenza A virus A/WSN/33(H1N1) flag tagged Polymerase acidic protein/VHL (unknown origin) expressed in HEK293T cells assessed as degradation of PA expression at 0.02 to 10 uM incubated for 24 hrs by Western blotting analysis; assay type: cell-based; settings: dose 0.02-10 µM
[32] = Hepatic clearance in dog liver microsomes preincubated for 5 mins followed by NADPH addition and measured for 45 mins by LC-MS analysis; assay type: ADME, Canis lupus familiaris, Microsome; settings: time 50 min
[33] = Binding affinity to Influenza A virus A/WSN/33(H1N1) flag tagged Polymerase acidic protein assessed as dissociation constant incubated for 48 hrs by microscale thermophoresis assay; settings: hek293t
[34] = molecular target: T1, Protein cereblon/Androgen receptor (Homo sapiens) (UniProt P10275+Q96SW2); assay: PROTAC activity at Influenza A virus A/WSN/33(H1N1) flag tagged Polymerase acidic protein/CRBN (unknown origin) expressed in HEK293T cells assessed as degradation of PA expression at 5 uM incubated for 24 hrs by Western blotting analysis; assay type: cell-based
[35] = molecular target: T1, Protein cereblon/Androgen receptor (Homo sapiens); assay: PROTAC activity at Influenza A virus A/WSN/33(H1N1) flag tagged Polymerase acidic protein/CRBN (unknown origin) expressed in HEK293T cells assessed as degradation of PA expression at 10 uM incubated for 16 hrs by Western blotting analysis; assay type: cell-based

O=C1c2c(O)c(=O)ccn2N([C@@H]2c3ccccc3SCc3c2ccc(F)c3F)[C@@H]2COCCN12 [BALOXAVIR]
EC50 (Influenza B virus [1]): 71 nM
EC50 (Influenza B virus [2]): 6 nM
IC50 (Influenza A virus [3]): 1.49 nM
EC50 (Influenza A virus [4]): 4 nM
Activity (Influenza A virus [5]): Active
selectivity ratio [6]: 16600
inhibition at 0.0008 µM (Influenza A virus [7]): 21%
CC50 at 48 h [8]: 30900 nM
CC50 at 48 h [9]: 63100 nM
EC50 (Influenza A virus [10]): 5 nM

NC12CC3CC(CC(C3)C1)C2 [AMANTADINE]
inhibition at 100 µM (Influenza A virus [11]): 62.3%
EC50 (Influenza A virus [4]): 1790 nM
selectivity ratio [6]: > 55.9
CC50 at 48 h [9]: > 100000 nM

CC(C)(C)c1ccc(C(=O)NC(=S)Nc2ccc(N)cc2)cc1
remaining at 1 h [12]: 113%
remaining at 2 h [13]: 112%
CLint scaled [14]: 249 mL/min/kg
CLint scaled [15]: 76.5 mL/min/kg
EC50 (Influenza B virus [1]): 151 nM
EC50 (Influenza B virus [2]): 167 nM
hepatic extraction ratio at 0.75 h [16]: 0.359
half-life [17]: 138 min
EC50 (Influenza A virus [18]): 24 nM
remaining at 5 min [19]: 101%
EC50 (Influenza A virus [4]): 332 nM
remaining at 0.25 h [20]: 102%
Stability [21]: 100%
hepatic extraction ratio at 0.75 h [22]: 0.735
half-life [23]: 21.9 min
CLhep predicted [24]: 66.1 mL/min/kg
CLint scaled [25]: 11.6 mL/min/kg
inhibition at 0.0016 µM (Influenza A virus [26]): 18%
remaining at 0.5 h [27]: 104%
Activity (Influenza A virus [5]): Active
selectivity ratio [6]: 218
hepatic extraction ratio at 0.75 h [28]: 0.712
half-life [29]: 26.1 min
CLhep predicted [30]: 7.43 mL/min/kg
CC50 at 48 h [8]: > 200000 nM
CC50 at 48 h [9]: 72300 nM
Activity [31]: inactive
CLhep predicted [32]: 22 mL/min/kg
EC50 (Influenza A virus [10]): > 10000 nM
Kd [33]: 487000 nM

CC(C)(C)c1ccc(C(=O)NC(=S)Nc2ccc(NC(=O)CCCCCCCNc3cccc4c3CN(C3CCC(=O)NC3=O)C4=O)cc2)cc1 (configuration not stated)
Activity [34]: Active
EC50 (Influenza A virus [4]): > 10000 nM
Activity [35]: Active
